Assay results as given in patent publication US20130142868A1 (priority 2010, published 2013).
Like-named read-outs stand apart in the source and are kept apart here.

Legend:
[1] = rat, in vivo
rats = settings: rat, in vivo
[2] = tested on: A549 human lung cancer cells; assay: Alamar Blue cell viability assay, A549; assay type: cell-based; settings: 72 h, 3 days incubation
Method: HUVEC, LLC-PK1, and A549 lung cancer cells were purchased from ATCC. LLC-PK1 cells were cultured in DMEM supplemented with 10% FBS and antibiotics (100 U/mL penicillin G and 0.1 mg/mL streptomycin). HUVEC cells were cultured in F12-K media supplemented with 100 ug/ml endothelial cell growth supplement (BD Biosciences, Franklin Lakes, N.J.), 10% FBS, and antibiotics. A549 human lung cancer cells were cultured in F12-K media with 10% FBS and antibiotics. All cells were grown at 37° C. in a 5% CO2/95% air humidified atmosphere.
Cell viability experiments were performed using the Alamar Blue dye reduction assay (Invitrogen, Carlsbad, Calif.). The experimental cell lines were plated at 1.0×10^4 cells/well in 96-well plates in recommended media and allowed to adhere overnight. The next day, cells were incubated with liposomes or free CCNU, with drug concentrations from 2.5 to 100 μM. Cells were also incubated with empty RGD-expressed and non-targeted liposomes. The control cells were only incubated in the recommended media. All experiments were performed in quadruplicate. Incubations were allowed to carry out for 3 days. […] Next, the wells were analyzed with a fluorescence plate reader with absorption and emission of 485/535 nm. All cell viability results are expressed as a percentage of viable cells compared to control cells.

[3] = in vivo; cited from earlier work

Cc1c(O)cccc1C(=O)N[C@@H](CSc1ccccc1)[C@H](O)CN1C[C@H]2CCCC[C@H]2C[C@H]1C(=O)NC(C)(C)C [nelfinavir]
blood concentration, nose drop administration relative to POD administration ([1]; Sprague-Dawley, 30 min): 3.2 times higher
cortex concentration, increase POD compared to nose drops ([1]; Sprague-Dawley, 30 min): 4.05 fold
olfactory bulb concentration, increase POD compared to nose drops ([1]; Sprague-Dawley, 30 min): 1.91 fold
blood normalized olfactory bulb concentration, POD compared to nose drops ([1]; 30 min): 3.6 fold
brain-to-blood ratio (average of all brain tissues), increase POD compared to nose drops ([1]; 30 min): 2.1 fold
cortex concentration, increase POD compared to nose drops ([1]; 30 min): 4.0 fold
olfactory bulb concentration, increase POD compared to nose drops ([1]; 30 min): 1.4 fold

CN1CC[C@]23c4c5ccc(O)c4O[C@H]2[C@@H](O)C=C[C@H]3[C@H]1C5 [morphine]
DTP % after POD administration (rats): 38-55%
DTP % after nose drops, depending on the dose (rats): 0-10%

O=NN(CCCl)C(=O)NC1CCCCC1 [Free Drug, 1-(2-chloroethyl)-3-cyclohexyl-1-nitroso-urea]
IC50 ([2]; after aerosolization, read-out: IC50 values, post-aerosolization): 70.5 ± 2.97 µM
IC50 ([2]; before aerosolization, read-out: IC50 values, pre-aerosolization): 68.7 ± 2.48 µM

OC[C@@H](O)[C@@H](O)[C@H](O)[C@H](O)CO [mannitol]
concentration at olfactory bulbs ([1]; Sprague-Dawley, 30 min): about 2 nmol/g
concentration in the brain's cortex, brain stem and spine ([1]; Sprague-Dawley, 30 min): 0.2 to 0.4 nmol/g
cortex concentration, increase POD compared to IV ([1]; Sprague-Dawley, 30 min): 8.69 fold
cortex concentration, increase POD compared to nose drops ([1]; Sprague-Dawley, 30 min): 11.6 fold
olfactory bulb concentration, increase POD compared to IV ([1]; Sprague-Dawley, 30 min): 53.1 fold
olfactory bulb concentration, increase POD compared to nose drops ([1]; Sprague-Dawley, 30 min): 25.6 fold
olfactory bulb concentration, increase POD compared to IV ([1]; Sprague-Dawley, 150 min): 40.0 fold
olfactory bulb concentration, increase POD compared to nose drops ([1]; Sprague-Dawley, 150 min): 22.1 fold
concentration in the brain's cortex, brain stem and spine ([1]; Sprague-Dawley, iv, 30 min): less than 0.02 nmol/g
blood normalized olfactory bulb concentration, POD compared to nose drops ([1]; 30 min): 18.6 fold
brain-to-blood ratio (average of all brain tissues), increase POD compared to nose drops ([1]; 30 min): 3.4 fold
half life [3]: 100 min
